In patent US11807650B2, “NMDA receptor modulators and uses thereof” (Novartis AG, priority 2016, dated 2023):

Target: T1, human GRIN1 (transcript variant NR1-3) and GRIN2D expressed in Xenopus oocytes (Homo sapiens, UniProt O15399)
T1 construct: GenScript (GRIN2D synthesis) SC115601; host or cells: Xenopus oocytes injected with cRNA (1 GluN1 : 2 GluN2)
Experiment: NR2D oocyte potentiation assay (two-electrode voltage clamp)
Assay type: cell-based
Details: 10 uM test compound; glutamate and glycine 10 μM each; holding potential −40 mV
Outline: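 Xenopus oocytes were defolliculated with collagenase, then injected with 50 nL of cRNA encoding human GluN1 (NR1-3 variant) and GluN2D mixed 1:2 and kept 72 h at 16° C. Two-electrode voltage clamp at −40 mV recorded currents; after 10 μM glutamate plus 10 μM glycine reached plateau, test compound was added until a new plateau formed.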

T1 sequence (O15399 28-1336, other chains not shown): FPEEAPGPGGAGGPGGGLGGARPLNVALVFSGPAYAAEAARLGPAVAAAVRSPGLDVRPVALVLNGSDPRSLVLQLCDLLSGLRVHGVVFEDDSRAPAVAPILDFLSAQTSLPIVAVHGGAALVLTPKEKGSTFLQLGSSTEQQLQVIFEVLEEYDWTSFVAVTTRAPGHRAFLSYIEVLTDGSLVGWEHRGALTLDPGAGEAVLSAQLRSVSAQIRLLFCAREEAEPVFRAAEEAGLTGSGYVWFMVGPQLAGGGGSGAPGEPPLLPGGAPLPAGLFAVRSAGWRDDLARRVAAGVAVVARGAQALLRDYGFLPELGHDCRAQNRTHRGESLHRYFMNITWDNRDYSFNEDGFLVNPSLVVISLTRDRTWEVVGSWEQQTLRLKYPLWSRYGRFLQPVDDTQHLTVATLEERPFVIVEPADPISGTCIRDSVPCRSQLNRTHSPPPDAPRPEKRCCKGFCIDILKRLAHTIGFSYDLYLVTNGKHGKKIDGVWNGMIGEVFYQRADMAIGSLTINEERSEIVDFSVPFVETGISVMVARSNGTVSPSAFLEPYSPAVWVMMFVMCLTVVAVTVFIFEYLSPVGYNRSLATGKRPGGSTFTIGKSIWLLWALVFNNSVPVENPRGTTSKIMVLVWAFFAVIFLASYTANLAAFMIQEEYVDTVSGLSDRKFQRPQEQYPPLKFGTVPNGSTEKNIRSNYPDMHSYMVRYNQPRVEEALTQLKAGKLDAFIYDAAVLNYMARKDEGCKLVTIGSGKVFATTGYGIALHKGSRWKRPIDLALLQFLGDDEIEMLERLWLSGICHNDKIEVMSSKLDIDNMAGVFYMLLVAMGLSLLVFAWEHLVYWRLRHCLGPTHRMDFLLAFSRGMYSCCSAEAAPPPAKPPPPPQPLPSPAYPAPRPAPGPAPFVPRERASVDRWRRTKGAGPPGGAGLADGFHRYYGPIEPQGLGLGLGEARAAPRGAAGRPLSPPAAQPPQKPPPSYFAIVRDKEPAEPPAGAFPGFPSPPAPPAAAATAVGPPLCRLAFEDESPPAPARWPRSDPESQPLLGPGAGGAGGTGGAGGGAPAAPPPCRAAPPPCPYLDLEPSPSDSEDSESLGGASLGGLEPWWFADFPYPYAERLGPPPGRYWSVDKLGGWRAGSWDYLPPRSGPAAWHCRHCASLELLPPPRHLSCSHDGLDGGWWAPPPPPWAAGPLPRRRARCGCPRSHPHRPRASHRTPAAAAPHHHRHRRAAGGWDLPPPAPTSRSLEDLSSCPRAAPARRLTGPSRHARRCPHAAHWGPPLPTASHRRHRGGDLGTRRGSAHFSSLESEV

| SMILES | activation at 10 µM [%] | NR2D Oocyte % Potentiation @ 10 uM |
| --- | --- | --- |
| CC1(c2ccc(-c3nc4n(c(=O)c3C#N)CCCS4)cn2)CC1 [Example 109, 8-[6-(1-methyl-cyclopropyl)pyridin-3-yl]-6-oxo-2H,3H, 4H,6H-pyrimido[2,1-b] [1,3]thiazine-7-carbonitrile] | 500 to 1000 | – |
| CC1(c2ccc(-c3nc4n(c(=O)c3C#N)CCCS4)cn2)CC1(F)F (centres unmarked) [Example 110, 8-(6-(2,2-difluoro-1-methylcyclopropyl)pyridin-3-yl)-6-oxo-3,4-dihydro-2H,6H-pyrimido[2,1-b][1,3]thiazine-7-carbonitrile] | 500 to 1000 | – |
| CC1CSc2nc(-c3ccc(C4(C)CC4(F)F)nc3)c(C#N)c(=O)n2C1 (centres unmarked) [Example 111, 8-[6-(2,2-difluoro-1-methyl-cyclopropyl)pyridin-3-yl]-3-methyl-6-oxo-2H,3H,4H,6H-pyimido[2,1-b] [1,3]thiazine-7-carbonitrile] | 500 to 1000 | – |
| C[C@H]1CSc2nc(-c3cnc(C(C)(C)C)c(F)c3)c(C#N)c(=N)n2C1 [Example 112, (R)-8-(6-(tert-butyl)-5-fluoropyridin-3-yl)-6-imino-3-methyl-3,4-dihydro-2H,6H-pyrimido[2,1-b][1,3]thiazine-7-carbonitrile] | > 1000 | – |
| C[C@@H]1CSc2nc(-c3cnc(C(C)(C)C)c(F)c3)c(C#N)c(=N)n2C1 [Example 113, (S)-8-(6-(tert-butyl)-5-fluoropyridin-3-yl)-6-imino-3-methyl-3,4-dihydro-2H,6H-pyrimido[2,1-b][1,3]thiazine-7-carbonitrile] | > 1000 | – |
| C=C1CSc2nc(-c3ccc(C(C)(C)C)nc3)c(C#N)c(=O)n2C1 [Example 114, 8-(6-(tert-butyl)pyridin-3-yl)-3-methylene-6-oxo-3,4-dihydro-2H,6H-pyrimido[2,1-b][1,3]thiazine-7-carbonitrile] | > 1000 | – |
| C[C@H]1CSc2nc(-c3ccc(C4(C)CC4)nc3)c(C#N)c(=O)n2C1 [Example 115, (R)-3-methyl-8-(6-(1-methylcyclopropyl)pyridin-3-yl)-6-oxo-3,4-dihydro-2H,6H-pyrimido[2,1-b][1,3]thiazine-7-carbonitrile] | 100 to 500 | – |
| C[C@@H]1CSc2nc(-c3ccc(C4(C)CC4)nc3)c(C#N)c(=O)n2C1 [Example 116, (S)-3-methyl-8-(6-(1-methylcyclopropyl)pyridin-3-yl)-6-oxo-3,4-dihydro-2H,6H-pyrimido[2,1-b][1,3]thiazine-7-carbonitrile] | > 1000 | – |
| C[C@H]1CSc2cc(-c3ccc(C4(C)CC4)nc3)c(C#N)c(=O)n2C1 [Example 117, (R)-3-methyl-8-(6-(1-methylcyclopropyl)pyridin-3-yl)-6-oxo-3,4-dihydro-2H,6H-pyrido[2,1-b][1,3]thiazine-7-carbonitrile] | > 1000 | – |
| C[C@@H]1CSc2cc(-c3ccc(C4(C)CC4)nc3)c(C#N)c(=O)n2C1 [Example 118, (S)-3-methyl-8-(6-(1-methylcyclopropyl)pyridin-3-yl)-6-oxo-3,4-dihydro-2H,6H-pyrido[2,1-b][1,3]thiazine-7-carbonitrile] | > 1000 | – |
| COC(C)(C)c1ccc(-c2nc3n(c(=O)c2C#N)CC(C)CS3)cn1 (centres unmarked) [Example 119, 8-(6-(2-methoxypropan-2-yl)pyridin-3-yl)-3-methyl-6-oxo-3,4-dihydro-2H,6H-pyrimido[2,1-b][1,3]thiazine-7-carbonitrile] | 10 to 100 | – |
| COC(C)(C)c1ccc(-c2nc3n(c(=O)c2C#N)CCCS3)cn1 [Example 120] | 10 to 100 | – |
| CCOC(C)(C)c1ccc(-c2nc3n(c(=O)c2C#N)CC(C)CS3)cn1 (centres unmarked) [Example 121, 8-(6-(2-ethoxypropan-2-yl)pyridin-3-yl)-3-methyl-6-oxo-3,4-dihydro-2H,6H-pyrimido[2,1-b][1,3]thiazine-7-carbonitrile] | – | Inhibitor |
| CCOC(C)(C)c1ccc(-c2nc3n(c(=O)c2C#N)CCCS3)cn1 [Example 122, 8-(6-(2-ethoxypropan-2-yl)pyridin-3-yl)-6-oxo-3,4-dihydro-2H,6H-pyrimido[2,1-b][1,3]thiazine-7-carbonitrile] | – | Inhibitor |
| COCC1CSc2nc(-c3ccc(C(C)(C)C)nc3)c(C#N)c(=O)n2C1 (centres unmarked) [Example 123, 8-(6-(tert-butyl)pyridin-3-yl)-3-(methoxymethyl)-6-oxo-3,4-dihydro-2H,6H-pyrimido[2,1-b][1,3]thiazine-7-carbonitrile] | 500 to 1000 | – |
| COCC1CSc2nc(-c3cnc(C(C)(C)C)nc3)c(C#N)c(=O)n2C1 (centres unmarked) [Example 124, 8-(2-(tert-butyl)pyrimidin-5-yl)-3-(methoxymethyl)-6-oxo-3,4-dihydro-2H,6H-pyrimido[2,1-b][1,3]thiazine-7-carbonitrile] | 500 to 1000 | – |

| SMILES | activation at 10 µM [%] | NR2D Oocyte % Potentiation @ 10 uM |
| --- | --- | --- |
| COCC1CSc2nc(-c3cnc(C(C)(C)C)c(F)c3)c(C#N)c(=O)n2C1 (centres unmarked) [Example 125, 8-(6-(tert-butyl)-5-fluoropyridin-3-yl)-3-(methoxymethyl)-6-oxo-3,4-dihydro-2H,6H-pyrimido[2,1-b][1,3]thiazine-7-carbonitrile] | > 1000 | – |
| CC1CSc2nc(-c3cnc(C(C)(C)C)c(O)c3)c(C#N)c(=O)n2C1 (centres unmarked) [Example 126, 8-(6-(tert-butyl)-5-hydroxypyridin-3-yl)-3-methyl-6-oxo-3,4-dihydro-2H,6H-pyrimido[2,1-b][1,3]thiazine-7-carbonitrile] | > 1000 | – |
| CC(C)(C)c1ncc(-c2nc3n(c(=O)c2C#N)CCCS3)cc1O [Example 127, 8-(6-(tert-butyl)-5-hydroxypyridin-3-yl)-6-oxo-3,4-dihydro-2H,6H-pyrimido[2,1-b][1,3]thiazine-7-carbonitrile] | > 1000 | – |
| CN(C)C(C)(C)c1ccc(-c2nc3n(c(=O)c2C#N)CCCS3)cn1 [Example 128, 8-(6-(2-(dimethylamino)propan-2-yl)pyridin-3-yl)-6-oxo-3,4-dihydro-2H,6H-pyrimido[2,1-b][1,3]thiazine-7-carbonitrile] | < 10 | – |
| CC(C)(C)c1ccc(-c2nc3n(c(=O)c2C#N)C[C@@H](CO)CS3)cn1 [Example 129, (S)-8-(6-(tert-butyl)pyridin-3-yl)-3-(hydroxymethyl)-6-oxo-3,4-dihydro-2H,6H-pyrimido[2,1-b][1,3]thiazine-7-carbonitrile] | > 1000 | – |
| CC(C)(C)c1ccc(-c2nc3n(c(=O)c2C#N)C[C@H](CO)CS3)cn1 [Example 130, (R)-8-(6-(tert-butyl)pyridin-3-yl)-3-(hydroxymethyl)-6-oxo-3,4-dihydro-2H,6H-pyrimido[2,1-b][1,3]thiazine-7-carbonitrile] | 100 to 500 | – |
| CC(C)(C)c1ccc(-c2nc3n(c(=O)c2C#N)C[C@@H](CF)CS3)cn1 [Example 131, (S)-8-(6-(tert-butyl)pyridin-3-yl)-3-(fluoromethyl)-6-oxo-3,4-dihydro-2H,6H-pyrimido[2,1-b][1,3]thiazine-7-carbonitrile] | > 1000 | – |
| CC(C)(C)c1ccc(-c2nc3n(c(=O)c2C#N)C[C@H](CF)CS3)cn1 [Example 132, (R)-8-(6-(tert-butyl)pyridin-3-yl)-3-(fluoromethyl)-6-oxo-3,4-dihydro-2H,6H-pyrimido[2,1-b][1,3]thiazine-7-carbonitrile] | 100 to 500 | – |
| C[C@H]1CSc2nc(-c3ccc(C(C)(C)N(C)C)nc3)c(C#N)c(=O)n2C1 [Example 133, (R)-8-(6-(2-(dimethylamino)propan-2-yl)pyridin-3-yl)-3-methyl-6-oxo-3,4-dihydro-2H,6H-pyrimido[2,1-b][1,3]thiazine-7-carbonitrile] | – | Inhibitor |
| C[C@@H]1CSc2nc(-c3ccc(C(C)(C)N(C)C)nc3)c(C#N)c(=O)n2C1 [Example 134, (S)-8-(6-(2-(dimethylamino)propan-2-yl)pyridin-3-yl)-3-methyl-6-oxo-3,4-dihydro-2H,6H-pyrimido[2,1-b][1,3]thiazine-7-carbonitrile] | < 10 | – |
| CC1CSc2cc(-c3cnc(C4(C)CC4)c(F)c3)c(C#N)c(=O)n2C1 (centres unmarked) [Example 135, 8-(5-fluoro-6-(1-methylcyclopropyl)pyridin-3-yl)-3-methyl-6-oxo-3,4-dihydro-2H,6H-pyrido[2,1-b][1,3]thiazine-7-carbonitrile] | > 1000 | – |
| CC1(c2ncc(-c3cc4n(c(=O)c3C#N)CCCS4)cc2F)CC1 [Example 136, 8-[5-fluoro-6-(1-methyl-cyclopropyl)pyridin-3-yl]-6-oxo-2H,3H,4H,6H-pyrido [2,1-b][1,3] thiazine-7-carbonitrile] | > 1000 | – |
| CC(C)(C)c1ncc(-c2nc3n(c(=O)c2C#N)C[C@@H](CO)CS3)cn1 [Example 137, (S)-8-(2-(tert-butyl)pyrimidin-5-yl)-3-(hydroxymethyl)-6-oxo-3,4-dihydro-2H,6H-pyrimido[2,1-b][1,3]thiazine-7-carbonitrile] | 100 to 500 | – |
| CC(C)(C)c1ncc(-c2nc3n(c(=O)c2C#N)C[C@H](CO)CS3)cn1 [Example 138, (R)-8-(2-(tert-butyl)pyrimidin-5-yl)-3-(hydroxymethyl)-6-oxo-3,4-dihydro-2H,6H-pyrimido[2,1-b][1,3]thiazine-7-carbonitrile] | > 1000 | – |
| C[C@H]1CSc2nc(-c3cnc(C(C)(C)C)c(O)c3)c(C#N)c(=O)n2C1 [Example 139, (R)-8-(6-(tert-butyl)-5-hydroxypyridin-3-yl)-3-methyl-6-oxo-3,4-dihydro-2H,6H-pyrimido[2,1-b][1,3]thiazine-7-carbonitrile] | > 1000 | – |
| C[C@@H]1CSc2nc(-c3cnc(C(C)(C)C)c(O)c3)c(C#N)c(=O)n2C1 [Example 140, (S)-8-(6-(tert-butyl)-5-hydroxypyridin-3-yl)-3-methyl-6-oxo-3,4-dihydro-2H,6H-pyrimido[2,1-b][1,3]thiazine-7-carbonitrile] | 500 to 1000 | – |
